Reference: PMC8224775, “Five Tetramic Acid Derivatives Isolated from the Iranian Fungus Colpoma quercinum CCTU A372” (Biomolecules, 2021)
Where two headings read alike, the source gives them in different places.

Assays:
Experiment in all cases: 5-day MTT cytotoxicity assay
[1] = test system: endocervical adenocarcinoma KB-3.1; format: cell-based, human; details: KB-3.1, 5-day MTT assay
Description: (§1) Cytotoxicity of compounds 1‒5 was initially determined against two cancer cell lines (mouse fibroblasts L-929 and human endocervical adenocarcinoma KB-3.1) by using a 5-day MTT assay according to an established procedure.
(§2) In 96-well flat-bottom microtiter plates, cell lines with serial dilution of the test compounds (final range: 37 to 0.6 × 10^−3 µg/mL) were incubated for five days. After five days, the cells were dyed using 3-(4,5-dimethyl-2-thiazolyl)-2,5-diphenyl-2H-tetrazolium bromide (MTT), which is only converted to its purple formazan derivative by living cells. The half-maximum inhibitory concentration (IC50 in µM) was calculated via the colorimetric method in a microplate reader using absorption at 595 nm. In addition, when an inhibition with an IC50 < 50 µM was observed, other cell lines were subjected to the test compounds to evaluate their further cytotoxicity: PC-3 (human prostate adenocarcinoma), SK-OV-3 (human ovary adenocarcinoma), MCF-7 (human breast adenocarcinoma), A-431 (human squamous carcinoma), and A549 (human lung carcinoma). A detailed procedure, including the colorimetric method to determine the cell viability, can be found in the SI.
(§3) Protocol: Cytotoxicity Assay
(§4) The assay was co nducted in 9 6-well flat -botto m microtiter plates using the parameters summarised in T able S2 and as described in [S2]. Cell l ines L-929 and KB-3.1 were incubated at 37 °C under 10 % CO2 in Gibco™ DMEM medium (T her mo Fisher Scientific, Waltham, M A, USA) supplemented with 10 % FBS. A microtiter plate was filled wit h 120 μ L o f this suspensio n (50,000/mL) in each well. Seperatel y, a nother microti ter plate wa s filled wit h 100 μL of gro wth medium in each well. Then, 50 μ L of the test compound solutions (1 mg/mL) were given to wells of the first column in two replicates (one compound per row). Cells without additives and MeOH were used as nega tive controls. Starting from the first column, 50 μ L of the solutions were gradually transferred to the next column, the contents thoroughly mixed, and 50 μL transferred to the following column. This created a serial dilution of the test compounds ranging from 333 μ g/mL to 1.9×10-3 μg/ mL. T he re mai ni ng 50 μ L after column twelve were discarded. From this microtiter plate, 60 μ L of the solutions fro m 111 μ g/mL to 1.9×10-3 μg/mL we r e give n to t he firs t p late co ntai ni ng 1 2 0 μ L of the cell suspensions (i.e. the highest co ncentration 333 μ g/ mL wa s no t used). T his resul ted in fi nal compo und concentratio ns rangi ng fro m 37 μ g/mL to 0.6×10-3 μg/ mL. After 5 days o f incubatio n under the aforementioned incubatio n conditions, the half maximu m inhibitory co ncentrations (IC50) were deter mined using a colorimetric tetrazolium d ye MT T assa y [S3]. For this, 20 μ L of a 5 mg/mL solution of 3-(4,5-dimethyl-2 -thiazolyl) -2,5-diphenyl-2H-tetrazolium br omide (MTT) were added to each well and incubated for two hours at 37 °C. T hen, the microtiter plate was ce ntrifuged (3,000 rpm, 5 min) and the supernatant removed by holding the plate upside-down and gentle shaking. Afterwards, the wells were washed using 100 μ L of phosphate buffered saline (PBS). T he plate was a gain ce ntrifuged a nd the supernata nt re mo ved as described before.
(§5) T hen, 1 0 0 μ L of an isopropanol:HCl solution (1L isopropanol+4 mL HCl 37 % w/v) were added to the wells. After incubating for 10 min at ambient temperature, the absorption of the wells at 595 nm was measured with an Infinite® 200 Pro microplate reader (TECAN, Männedorf, Schweiz). The absorption values of the cells without additives were averaged and set to 100 % cell viability. Then, the means of absorption of the two compound replicates were set in relation to the blank media. T hese percentage values were plotted against the concentratio n range (37 μ g/mL to 0.6×10−3 μg/ mL). T he IC50 value was r ead fro m the plot (in μ g/ mL) a nd the uni ts conversed […]
to μM. […]

[2] = test system: squamous cell carcinoma A-431; format: cell-based, human; details: A-431, 5-day MTT assay, read-out: IC50
Description: as §1, §2, §3, §4, §5
to μM. […]

[3] = test system: ovarian carcinoma SK-OV-3; format: cell-based, human; details: SK-OV-3, 5-day MTT assay, read-out: IC50
Description: as §1, §2, §3, §4, §5
to μM. […]

[4] = test system: human prostate cancer PC-3; format: cell-based; details: 120 h, PC-3, 5-day MTT assay, read-out: IC50
Description: as §1, §2, §3, §4, §5
to μM. […]

[5] = test system: human lung carcinoma A-549; format: cell-based; details: A549, 120 h, A-549, 5-day MTT assay, read-out: IC50
Description: as §1, §2, §3, §4, §5
to μM. […]

[6] = test system: human breast adenocarcinoma MCF-7; format: cell-based; details: MCF-7, 5-day MTT assay, read-out: IC50
Description: as §1, §2, §3, §4, §5
to μM. […]

Compound: CC(=O)OC(C(=O)O)C(C)C1C(C)=CC2CC(C)CCC2C1(C)C(O)=C1C(=O)C(C)N(C)C1=O (stereo not shown) [compound 1, Colposetin A]
- IC50 [1]: not active

Compound: CCC(C(=O)O)C1C(C)=CC2CC(C)CCC2C1(C)C(O)=C1C(=O)C(C)N(C)C1=O (stereo not shown) [compound 2, Colposetin B]
- IC50 [2]: 6.2 µM
- IC50 ([2]; Homo sapiens, A-431, 120 h): 6.2 to 8.1 µM
- IC50 ([3]; Homo sapiens, SK-OV-3, 120 h): 6.2 to 8.1 µM
- IC50 [3]: 8.1 µM
- IC50 ([1]; Homo sapiens, KB 3-1, 120 h, read-out: IC50): 5.7 µM
- IC50 [4]: 17.9 µM
- IC50 [5]: 16.5 µM
- IC50 ([6]; Homo sapiens, MCF7, 120 h): 6.2 to 8.1 µM
- IC50 [6]: 7.9 µM

Compound: CC1=CC2CC(C)CCC2C2(C)C(=O)OC(C(=O)O)C(C)C12 (stereo not shown) [compound 3, Colposetin C]
- IC50 [1]: not active

Compound: CC(C=CCC(C)CCC=C(C)C(=O)C1=C(O)C(C)N(C)C1=O)=CC(C)C(O)C(=O)O (stereo not shown) [compound 4, Colpomenoic acid A]
- IC50 [1]: not active

Compound: CC(C=CCC(C)C=CC=C(C)C(=O)C1=C(O)C(C)N(C)C1=O)=CC(C)C(O)C(=O)O (stereo not shown) [compound 5, Colpomenoic acid B]
- IC50 [1]: not active
